Laboratory results as given in US20260224549A1, “COMPOUNDS, COMPOSITIONS, AND METHODS FOR TREATING, AMELIORATING, AND/OR PREVENTING PAIN” (priority 2023, published 2026).
Entries after “also recorded” stand apart in the source; their conditions may differ. Like-named read-outs stand apart in the source and are kept apart here.

How the values were obtained:
[1] = cited from earlier work
[2] = Solubility in water of salts; assay type: physicochemical
[3] = Hygroscopicity - Dynamic Vapor Sorption (DVS); assay type: physicochemical
Description: Hygroscopicity—Dynamic Vapor Sorption (DVS)
DVS is a gravimetric technique that measures how quickly and how much of a solvent (water) is sorbed by a sample. The relative humidity or vapor concentration surrounding the sample is varied while the change in mass of the sample is measured. […] The mass values at each relative humidity step are used to generate an isotherm. Isotherms are divided in two components: sorption for increasing humidity steps and desorption for decreasing humidity steps. A plot of kinetic data is also used to show the change in mass and humidity as a function of time.
The samples were analyzed using a TA Q5000 automated dynamic vapor sorption analyzer. The samples were dried at 60° C. over 180 minutes and then cooled to 25° C. with a dry nitrogen purge. The samples were then subjected to 0 to 90% RH, back to 10% RH at 25° C. in 10% RH steps.

[4] = Thermal and storage stability of salts and forms; assay type: physicochemical; conditions: for stability at ambient conditions: storage
Excerpt: On the basis of the DSC data, the acetate salt may be a hydrate.
The amorphous form may be obtained by crystallization from anhydrous solvents or by thermal desolvation of the hydrate. In certain embodiments, the preferred polymorph of Compound I diphosphate is Compound I diphosphate monohydrate (Form A): […]

[5] = Static vapor sorption studies; assay type: physicochemical; conditions: for Est. H2O Content (%) / Wt % Change: ambient temperature, 3 weeks, Form A staged
Excerpt: Static Vapor Sorption Studies
Static vapor sorption studies were done in hermetic humidity chambers using saturated salts, or environmental humidity chambers to control the temperature and humidity. Data collected during dynamic vapor sorption studies often are not at thermodynamic equilibrium. To gain a better understanding of the water uptake and the critical humidity level of the API, samples of the starting material (i.e., Form A) were monitored in static humidity chambers to allow the sample to equilibrate with atmospheric moisture.
In these studies, water vapor sorption was determined gravimetrically by storing samples in open aluminum dishes. Compound I diphosphate salt lot was used for this study. Samples were stored at 7 different humidity levels at ambient temperature (Table 19). Approximately 50 mg of Form A was staged at each humidity condition. The samples were weighed before placing them in the chamber and then re-weighed after 3 weeks. After re-weighing, the samples were immediately analyzed by XRD to determine whether a change in form had occurred.
The sample stored at 11% RH was an outlier and was therefore omitted from the final isotherm plot. The static isotherm plot is roughly consistent with the DVS isotherm plot (FIG. 12F) with a large moisture uptake at around 40% RH and a maximum uptake between 4 and 5 weight percent.

[6] = Metabolism in liver microsomes and hepatocytes in vitro; assay type: in vitro ADME
[7] = Phase I single ascending dose pharmacokinetics of metabolite Compound II in plasma; assay type: in vivo, human; conditions: for AUC(0-t): po; for Tmax: read-out: Tmax, Median
Description: The study comprised a single ascending dose (SAD), sequential cohort study, incorporating a food effect (FE) evaluation. Up to 40 subjects were to be studied in 5 cohorts (Cohorts A1 to A5), each cohort consisting of 8 subjects.
The actual blood sampling dates and times relative to dosing time were listed by subject and nominal sampling time, with time deviation calculated, for all subjects with available plasma concentration data.
For PK concentration data, the number of non-missing values, number of below limit of quantification (BLQ) values, arithmetic mean, standard deviation, median, minimum, maximum, coefficient of variation (CV %), geometric mean and geometric coefficient of variation (geo CV %) values was presented.
For PK parameter data, the number of non-missing values, arithmetic mean, standard deviation, median, minimum, and maximum values were presented.

[8] = human, metabolite after 200 mg DS (Fasted), single oral dose, plasma
[9] = human, metabolite after 400 mg DS (Fasted), single oral dose, plasma
[10] = metabolite after 60 mg DS (Fasted), single oral dose, plasma
[11] = metabolite after 120 mg DS (Fasted), single oral dose, plasma
[12] = metabolite after 200 mg DS (Fasted), single oral dose, plasma
[13] = metabolite after 400 mg DS (Fasted), single oral dose, plasma

## O=S(=O)(O)CCS(=O)(=O)O [1,2-Ethanedisulfonic acid]
[1]; first value listed
  pKa: −2.1
[1]; second value listed
  pKa: −1.5

## O=S(=O)(O)c1cccc2c(S(=O)(=O)O)cccc12 [1,5-Naphthalenedisulfonic acid]
[1]; first value listed
  pKa: −3.4
[1]; second value listed
  pKa: −2.6

## CC1(C)C2CCC1(CS(=O)(=O)O)C(=O)C2 (centres unmarked) [Camphorsulfonic acid]
[1]; first value listed
  pKa: 2.2

## CN(C)C[C@H]1CN(CCc2ccsc2)CC[C@]1(O)c1cccc(C(N)=O)c1 [Compound I diphosphate, 3-(3S,4R)-3-((dimethylamino)methyl)-4-hydroxy-1-(2-(thiophen-3-yl)ethyl)piperidin-4-yl-benzamide bisphosphate]
[2]
  aqueous solubility: high aqueous solubility
[2]; unbuffered water
  solubility in unbuffered water: high solubility
[3]; in words
  hygroscopicity: moderately hygroscopic
[4]; in words, listed as diphosphate salt
  stability (thermal, chemical): more stable; also recorded: improved stability (thermally and chemically) over the other salts
[4]; listed as diphosphate salt
  stability at ambient conditions: stable to storage under ambient conditions
[5]; 11% relative humidity
  Est. H2O Content (%): 3.1%
  Wt % Change: −0.2 Wt %
[5]; 22% relative humidity
  Est. H2O Content (%): 0.8%
  Wt % Change: −2.5 Wt %
[5]; 33% relative humidity
  Est. H2O Content (%): 1.8%
  Wt % Change: −1.5 Wt %
[5]; 43% relative humidity
  Est. H2O Content (%): 3.9%
  Wt % Change: +0.6 Wt %
[5]; 75% relative humidity
  Est. H2O Content (%): 4.1%
  Wt % Change: +0.8 Wt %
[5]; 84% relative humidity
  Est. H2O Content (%): 4.4%
  Wt % Change: +1.1 Wt %
[5]; 97% relative humidity
  Est. H2O Content (%): 4.8%
  Wt % Change: +1.5 Wt %

## CNC[C@H]1CN(CCc2ccsc2)CC[C@]1(O)c1cccc(C(N)=O)c1 [Compound II, 3-(3S, 4R)-3-((methylamino)methyl)-4-hydroxy-1-(2-(thiophen-3-yl)ethyl)piperidin-4-yl-benzamide]
[6]
  metabolite formation in vitro: predominant metabolite of Compound I
[7]; 200 mg DS (Fasted), single oral dose, plasma
  MRAUC0-t, metabolite ratio (MEB-373/MEB1170 AUC0-t values), Mean: 0.0231
[7]; 400 mg DS (Fasted), single oral dose, plasma
  MRAUC0-t, metabolite ratio (MEB-373/MEB1170 AUC0-t values), Mean: 0.0276
[7]; human, plasma, oral, 400 mg dose group (n=5), read-out: mean plasma t1/2 (converted)
  half-life: 0.902 h
[7]; human, plasma, oral, one individual at 200 mg, read-out: t1/2 (converted)
  half-life: 2 h
[7]; human, plasma, 200 mg, metabolite after 200 mg DS (Fasted), single oral dose, plasma, read-out: AUC0-t (zero to the time of the last quantifiable concentration), Mean
  AUC(0-t): 8.77 ng·h/mL
[7]; human, plasma, 400 mg, metabolite after 400 mg DS (Fasted), single oral dose, plasma, read-out: AUC0-last (zero to 24 hours postdose), Mean
  AUC(0-t): 27.3 ng·h/mL
[7]; human, plasma, 400 mg, metabolite after 400 mg DS (Fasted), single oral dose, plasma, read-out: AUC0-t (zero to the time of the last quantifiable concentration), Mean
  AUC(0-t): 21.1 ng·h/mL
[7]; [8]
  Cmax: 7.91 ng/mL
  Tmax: 2.26 h
[7]; [9]
  Cmax: 12.2 ng/mL
  Tmax: 2 h
[7]; human, metabolite after 400 mg DS (Fasted), single oral dose, plasma, read-out: AUC0-inf, Mean
  AUC(0-inf): 28.7 ng·h/mL
[7]; human, metabolite after 400 mg DS (Fasted), single oral dose, plasma, read-out: t1/2 (terminal plasma half-life), Mean (converted)
  half-life: 0.902 h
[7]; in vivo
  systemic exposures relative to Compound I: very low relative to Compound I
[7]; [10]
  Tlast, Max: 2.50 h
  Tlast, Min: 2.50 h
[7]; [11]
  Tlast, Max: 4.00 h
  Tlast, Min: 2.50 h
  Tmax, Max: 2.50 h
  Tmax, Min: 2.50 h
[7]; [12]
  Tlast (time of last measurable concentration), Median: 3.25 h
  Tlast, Max: 4.00 h
  Tlast, Min: 2.50 h
  Tmax, Max: 2.50 h
  Tmax, Min: 1.00 h
[7]; [13]
  Tlast (time of last measurable concentration), Median: 4.00 h
  Tlast, Max: 4.00 h
  Tlast, Min: 2.50 h
  Tmax, Max: 2.50 h
  Tmax, Min: 1.50 h
[7]; most subjects at doses of 20, 60, and 120 (fed) mg
  plasma concentrations: below the limit of assay quantitation

## CCS(=O)(=O)O [Ethanesulfonic acid]
[1]; first value listed
  pKa: −2.1

## CN(C)C[C@H]1CN(CCc2ccsc2)CC[C@]1(O)c1cccc(C(N)=O)c1 [Form A]
[3]; at 90% RH
  maximum water/moisture uptake: 4.15 wt %
[4]
  heating withstood by the hydrate: ~ 70 °C
  stability at ambient conditions: stable at ambient conditions
[5]; XRD after storage at different humidity levels
  change of solid state form with humidity: did not change at any humidity level; also recorded: retains its structure in both low and high humidity environments
[5]; static isotherm
  relative humidity of large moisture uptake: around 40 % RH

## O=C(O)CNC(=O)c1ccccc1 [Hippuric acid]
[1]; first value listed
  pKa: 3.6

## O=S(=O)(O)c1ccc2ccccc2c1 [Naphthalene-2-sulfonic acid]
[1]; first value listed
  pKa: 0.2

## CCCCCCCCCCCCCCCCCC(=O)O [Stearic acid]
[1]; first value listed
  pKa: 4.9
